Laboratory results: patent US10646572B2, “Pharmaceutical compositions with enhanced stability” (Foresee Pharmaceuticals Co., Ltd., priority 2006, dated 2020)
Structures can show the parent of a compound that is named as a salt. Where two headings read alike, the source gives them in different places. Blank lines part the entries; values can stand above or below the compound they belong to.

Experiments:
[1] = Molecular weight of PLGA in PLGA/DMSO injectable compositions (GPC); assay type: physicochemical; conditions: DMSO, 4° C., after 16 months
Description: (§1) The injectable compositions were filled into 1.2 mlL polypropylene syringes with luer-lock tips. […] The injectable composition was sampled at pre-defined time points.

[2] = NMP
Description: Poly(DL-lactide-co-glycolide) (PLGA) of an 85/15 ratio of lactide to glycolide (DLPLG85/15, IV: 0.28) with a lauryl ester end group was dissolved in N- methyl-2-pyrrolidone (NMP) to give a 50% solution by weight. The leuprolide salts were mixed with the PLGA solution in NMP to give a uniform injectable composition at ratios shown in the Table 1. The injectable compositions were filled into 1.2 mL polypropylene syringes with luer-lock tips. Then the pre-filled syringes were sealed using luer-lock caps. The capped syringes were packaged in a container and sealed in a plastic bag under vacuum and then stored at 4° C. and room temperature (˜22° C.) for up to 18 months. The injectable composition was sampled at 24 h, 1, 2, 3, 6, 12, and 18 month time points. […] Molecular weight of the polymer was determined by gel permeation chromatography (GPC) using polystyrene standards with known molecular weights.

[3] = assay type: physicochemical
Description: as §1

[4] = In vitro release of leuprolide from injectable polymeric formulations (Example 10); assay type: physicochemical; conditions: 6% by weight in PLGA/NMP, PBS pH 7.4, 37° C., FIG. 3
Description: Three polymer vehicle solutions were prepared as following: PLG 85/15 (0.28 IV) with a lauryl ester end group was dissolved in NMP at 50% and 55% by weight, and RG503 (0.42 IV) with a carboxylic acid end group was dissolved in NMP at 50% by weight. Then suitable amount of leuprolide hydrochloride (LAHCl) and leuprolide mesylate (LAMS) were mixed with the polymer solutions at 6% by weight each. The formulations were thoroughly mixed to obtain uniform formulations.
(§2) An aliquot of the formulation suspension (about 100 mg) was injected into in 3 mL phosphate buffer saline solution at pH 7.4 with 0.1% sodium azide at 37° C. The receiving fluid was replaced at selected time points with fresh buffer solution, and the removed buffer solution diluted 2-fold with phosphate buffer at pH 7.4 was analyzed for drug concentration by HPLC. The amount released at each time point was calculated.

in vivo = assay: in vivo; parameters: species or system rats; conditions: rat, sc
Description: Each formulation was then injected into the rats subcutaneously at a volume of about 100 μL with 6 animals per group. The serum samples were collected from each animal at 3 hour, 1, 3, 7, 14, 28, 42, 56, and 70 days post injection. The serum samples were analyzed for leuprolide concentration by ELISA using the kits available from Peninsula Laboratories Inc. The leuprolide remaining in the implants at various times was analyzed by HPLC.

[5] = cited from earlier work
[6] = Effect of Vitamin E TPGS on in vitro release of leuprolide (Example 11); assay type: physicochemical; conditions: LAHCl 15% in PLA 100DLPL/NMP, PBS pH 7.4, 37° C., FIG. 4
Description: The polymer vehicle solutions with and without excipients were prepared as following: PLA 100DLPL (0.26 IV, Lakeshore, Ala.) with a lauryl ester end group and Vitamin E TPGS were dissolved in NMP at suitable amount according to the Table 7. Then suitable amount of leuprolide hydrochloride (LAHCl) was mixed with the polymer solutions at 15% by weight. The formulations were thoroughly mixed to obtain uniform formulations.
as §2, with “diluted 10-fold” for “diluted 2-fold”, “with PBS” for “with phosphate buffer”

Compound: CCNC(=O)[C@@H]1CCCN1C(=O)[C@H](CCCNC(=N)N)NC(=O)[C@H](CC(C)C)NC(=O)[C@@H](CC(C)C)NC(=O)[C@H](Cc1ccc(O)cc1)NC(=O)[C@H](CO)NC(=O)[C@H](Cc1c[nH]c2ccccc12)NC(=O)[C@H](Cc1c[nH]cn1)NC(=O)[C@@H]1CCC(=O)N1 [leuprolide acetate, Leuprolide acetate, reference compound]
decrease of molecular weight of PLGA comparing to blank control [1]: about 40%
decrease of molecular weight of PLGA comparing to blank control ([2]; 4° C., after 6 months): more than 10%
leuprolide degraded [3]: Up to 20%

Compound: C[C@@H](O)[C@@H]1NC(=O)[C@H](CCCCN)NC(=O)[C@@H](Cc2c[nH]c3ccccc23)NC(=O)[C@H](Cc2ccccc2)NC(=O)[C@@H](NC(=O)[C@H](N)Cc2ccccc2)CSSC[C@@H](C(=O)N[C@H](CO)[C@@H](C)O)NC1=O [octreotide acetate]
octreotide acylated ([5]; combined with polylactide-co-glicolide solution in NMP, within 5 hours): more than 40%
molecular weight of the polymer ([5]; polylactide-co-glicolide solution in NMP, within the same time period (5 hours)): decreased significantly

Compound: Vitamin E TPGS
effect on initial burst [6]: did not affect the initial burst
effect on release rate of leuprolide at later stages [6]: seemed to reduce the release rate of leuprolide at later stages

More lines, now with the values ahead:

molecular weight of PLGA versus control [1]: comparable to that of the control
molecular weight of PLGA versus blank control ([2]; both 4° C. and RT, after 12 months): the same as that of the blank control
leuprolide release, LAHCl versus LAMS [4]: no significant difference
time at which Cmax was reached (in vivo): 3 h
Cmax (in vivo; Cmax (serum leuprolide)): 662 ng/mL
leuprolide degraded [3]: less than 5%
Compound: CCNC(=O)[C@@H]1CCCN1C(=O)[C@H](CCCNC(=N)N)NC(=O)[C@H](CC(C)C)NC(=O)[C@@H](CC(C)C)NC(=O)[C@H](Cc1ccc(O)cc1)NC(=O)[C@H](CO)NC(=O)[C@H](Cc1c[nH]c2ccccc12)NC(=O)[C@H](Cc1c[nH]cn1)NC(=O)[C@@H]1CCC(=O)N1 [leuprolide hydrochloride, Leuprolide Hydrochloride]

Cmax (serum leuprolide) (in vivo): 370.6 ng/mL
time at which Cmax was reached (in vivo): 3 h
leuprolide degraded [3]: less than 5%
Compound: CCNC(=O)[C@@H]1CCCN1C(=O)[C@H](CCCNC(=N)N)NC(=O)[C@H](CC(C)C)NC(=O)[C@@H](CC(C)C)NC(=O)[C@H](Cc1ccc(O)cc1)NC(=O)[C@H](CO)NC(=O)[C@H](Cc1c[nH]c2ccccc12)NC(=O)[C@H](Cc1c[nH]cn1)NC(=O)[C@@H]1CCC(=O)N1 [leuprolide mesylate, Leuprolide Mesylate]
